Assay results published in PMC11478322, “1,2,4-Oxadiazole Derivatives: Physicochemical Properties, Antileishmanial Potential, Docking and Molecular Dynamic Simulations of Leishmania infantum Target Proteins” (Molecules, 2024).
Read-outs that look alike come from different tables or passages of the source.

Legend:
[1] = system: L. infantum amastigotes in PeMs; experiment: microbe, parasite or virus in culture; settings: for number of intracellular amastigotes / parasites in infected PeMs: glucantime 346.19 µM, Amphotericin B 10.55 µM
Procedure: After initial cultivation, non-adherent cells were removed by washing with fresh RPMI medium. Subsequently, PeMs were infected with stationary promastigote forms of L. infantum at 1:20 PeM/promastigotes ratio. […] After incubation time, the samples were washed in PBS, fixed with methanol, and stained with Giemsa. The percentage of infected macrophages was determined by counting 150 randomly chosen cells in duplicate, and the survival index (SuI) was calculated by multiplying the percentage of infected cells by the mean of amastigotes in infected cells. […] The tests were carried out in duplicate in three independent experiments.

[2] = system: L. infantum amastigotes in PeMs; design: method as in PMID 18660990, PMID 23070424; settings: concentration used as positive control; read-out: IC50 of reference drugs; cited from earlier work
[3] = Cytotoxicity assay (MTT) in fibroblasts; format: cell-based; settings: mouse, 48 h of treatment, MTT, tested 6.25–200 µM
Procedure: (§1) The cytotoxic potential of Ox1–Ox7 was first evaluated in fibroblasts (L929) and macrophages (J774.G8). For this, 5 × 10^5 cells/mL were seeded in 96-well microplates containing 100 μL of DMEM or RPMI-1640 medium supplemented with 10% fetal bovine serum (FBS) and cultivated for 24 h at 37 °C, under 5% CO2 atmosphere. […] Untreated cells were considered as negative control. The cell viability was measured by spectrometry after 48 h of cultivation using MTT (Sigma-Aldrich, St. Louis, MO, USA) methodology described by Mosmann. The optical densities (OD) of the samples were read in a Glomax Multiplate reader (Promega, Madison, WI, USA) at 540 nm. Each assay was performed in triplicate in three independent experiments. […] The selectivity index (SI) for each compound was calculated as the ratio between the CC50 values obtained for J774.G8 macrophages and fibroblast and the IC50 values for promastigotes. The compound with a higher value of SI was selected for cytotoxicity evaluation in macrophages obtained from BALB/c mice peritoneal exudate (PeM), following the methodology described above.

fibroblasts (L929) = experiment: Cytotoxicity assay (MTT) in fibroblasts; format: cell-based; settings: 200 µM, 48 h
Procedure: as §1

[4] = Cytotoxicity assay (MTT) in macrophages; format: cell-based; settings: mouse, 48 h of treatment, MTT, tested 6.25–200 µM
Procedure: as §1

macrophages (J774.G8) = experiment: Cytotoxicity assay (MTT) in macrophages; format: cell-based; settings: 200 µM, 48 h
Procedure: as §1

[5] = system: L. infantum promastigotes; experiment: Promastigote viability (CellTiter-Glo ATP); format: cell-based, L. infantum (BH46 strain); settings: for IC50: Leishmania infantum, read-out: IC50 Pro; for SI Pro/J774.G8: ratio CC50 (J774.G8)/IC50 (promastigotes); for SI Pro/L929: ratio CC50 (L929)/IC50 (promastigotes); for SI (promastigotes vs fibroblasts and J774.G8 macrophages): stated as bound
Procedure: Promastigote forms of L. infantum (BH46 strain) were cultivated at 27 °C in Schneider’s medium, supplemented with 10% (v/v) heat-inactivated fetal bovine serum (FBS, Gibco, Waltham, MA, USA), 100 U/mL penicillin, and 0.01 mg/mL streptomycin. Parasites in the log phase were used in the test of drugs against promastigotes, whereas those obtained in the stationary phase were used to infect peritoneal macrophages. […] The viability of promastigotes was assessed through ATP production using the CellTiter-Glo® Luminescent Cell Viability assay (Promega, Madison, WI, USA), in accordance with the manufacturer’s instructions.

[6] = Cytotoxicity assay (MTT) in peritoneal macrophages; format: cell-based, BALB/c mice; settings: BALB/c, mouse, peritoneal macrophages (PeM); peritoneal macrophages, estimated; read-out: CC50 for PeMs
Procedure: as §1

[7] = system: peritoneal macrophages from BALB/c mice (PeM); experiment: Cytotoxicity assay (MTT) in peritoneal macrophages; format: cell-based
Procedure: as §1

[8] = system: L. infantum promastigotes; experiment: Scanning electron microscopy of promastigotes (rounded cells count); format: cell-based; settings: 48 h, control 5%
Procedure: To identify alterations in the morphology of promastigotes and amastigotes, scanning (SEM) and transmission (TEM) electron microscopy assays were performed. For SEM, L. infantum promastigotes were treated with once or twice the IC50 concentration of Ox1 for 48 h. Subsequently, the parasites were harvested by centrifugation, washed with 100 mM PBS, pH 7.2, fixed at room temperature, for 1 h in 2.5% glutaraldehyde solution diluted in 0.1 M cacodylate buffer, pH 7.2. Cells were adhered to coverslips pre-coated with poly-L-lysine, post-fixed for 1 h with a solution containing 1% osmium tetroxide, 0.8% potassium ferricyanide, and 5 mM calcium chloride diluted in 0.1 M cacodylate buffer, pH 7.2, in light-protected environment. Then, the cells were dehydrated in graded ethanol series (15–100%) for 10 min at room temperature. Samples were critical-point dried in a LEICA EM CPD300 apparatus (Leica Microsystems, Wetzlar, Hessen, DE, Germany) and then coated with 20 nm gold and observed in a JEOL T-200 scanning electron microscope (JEOL Ltd., Tokyo, Japan). For MET, promastigotes and infected PeMs were treated or not with once or twice IC50 concentration of Ox1, fixed and post-fixed, as described above. For infected–adhered peritoneal macrophages, after the post-fixation, the cells were scraped off the culture dishes with a rubber policeman. […]

[9] = system: L. infantum promastigotes; experiment: Mitochondrial membrane potential, Rhodamine 123 flow cytometry; format: cell-based
Procedure: Afterward, the cells were centrifuged and stained with Rhodamine 123 (10 µg/mL, molecular probes, Invitrogen™, Waltham, MA, USA) in PBS for 15 min at 27 °C, in the dark. […] The changes in the fluorescence intensity for fluorochrome were determined by the variation index calculated as follows: (MT − MC)/MC where MT is the mean fluorescence intensity of treated cells and MC is the mean of fluorescence of control cells without treatment. A total of 20,000 events were acquired, and the data were analyzed with FLOWJO software version 10.2.

[10] = 24 h, Ox1 8.24, 16.49, 32.98 µM
[11] = promastigotes, 48 h of treatment

Row | Compound | number of intracellular amastigotes / parasites in infected PeMs [1, 10] | CC50 at 48 h ([3]; L929 fibroblasts) | CC50 at 48 h ([4]; J774.G8 macrophages) | IC50 [5, 11] | SI Pro/J774.G8 [5] | SI Pro/L929 [5] | melting point | SI (promastigotes vs fibroblasts and J774.G8 macrophages) [5] | further results
1 | C[C@@H]1[C@H](O)[C@@H](C)/C=C/C=C/C=C/C=C/C=C/C=C/C=C/[C@H](O[C@@H]2O[C@H](C)[C@@H](O)[C@H](N)[C@@H]2O)C[C@@H]2O[C@](O)(C[C@@H](O)C[C@@H](O)[C@H](O)CC[C@@H](O)C[C@@H](O)CC(=O)O[C@H]1C)C[C@H](O)[C@H]2C(=O)O [Amphotericin B, reference compound] | reduced the number of intracellular amastigotes |  |  |  |  |  |  |  | IC50 [2]: 10.6 µM
2 | COc1ccc(-c2noc(NC3CCCCC3)n2)cc1 [Ox1, N-Cyclohexyl-3-(4-methoxyphenyl)-1,2,4-oxadiazol-5-amine] | significantly decreased | > 200 µM | > 200 µM | 32.9 ± 2.2 µM | 8.9 | 9.7 | 109 to 110 °C |  | reduction of cell viability, fibroblasts (fibroblasts (L929)): 20%; reduction of cell viability, macrophages J774.G8 (macrophages (J774.G8)): 26%; reduction in promastigote viability ([5]; 25 µM, 48 h): 32%; reduction of growth of parasites ([5]; 50 µM, 24 h): 66%; promastigote viability inhibition ([5]; 200 µM, regardless of the cultivation time (24 and 48 h)): exceeded 90%; SI against promastigotes compared to peritoneal macrophages ([5]; CC50 PeM/IC50 promastigotes): 18.7; increase in activity compared to compound Ox3 ([5]; promastigote IC50 comparison): about 10 times; CC50 at 48 h [6]: 617 µM; reduction of viability of PeMs ([7]; 400 µM, compared to control cells): 13%; viability of macrophages (PeM) ([7]; 6.25 to 200 µM): significantly increased; survival index (SuI) of amastigotes inside the macrophages [1, 10]: significantly decreased; SI against amastigotes ([1]; CC50 for PeM/IC50 of amastigote forms): 61.7; IC50 ([1]; Leishmania infantum, Peritoneal macrophage, 24 h, read-out: IC50 for amastigote forms in PeMs): 10 µM; percentage of rounding cells ([8]; IC50 (32.98 µM)): 7%; percentage of rounding cells ([8]; twice the IC50 (65.96 µM)): 30%; variation index of membrane potential (Rhodamine 123) ([9]; 2× IC50 of Ox1, 48 h): −0.32; variation index of membrane potential (Rhodamine 123) ([9]; IC50 of Ox1, 48 h): +0.28; membrane potential (Rhodamine 123 fluorescence) vs control ([9]; ½ IC50 of Ox1, 48 h): No difference
3 | O=[N+]([O-])c1cccc(-c2noc(NC3CCCCC3)n2)c1 [Ox2, N-Cyclohexyl-3-(3-nitrophenyl)-1,2,4-oxadiazol-5-amine] |  | > 200 µM | > 200 µM | 220 ± 3.6 µM |  | 1.7 | 131 to 133 °C | lower than 5.0 | 
4 | O=[N+]([O-])c1ccc(-c2noc(NC3CCCCC3)n2)cc1 [Ox3, N-Cyclohexyl-3-(4-nitrophenyl)-1,2,4-oxadiazol-5-amine] |  | > 200 µM | > 200 µM | 336 ± 12.1 µM |  | 1.1 | 201 to 203 °C |  | 
5 | Cc1ccc(-c2noc(NC3CCCCC3)n2)cc1 [Ox4, N-Cyclohexyl-3-(4-methylphenyl)-1,2,4-oxadiazol-5-amine] |  |  |  |  |  | 1.7 |  |  | CC50 at 48 h ([3]; read-out: CC50 L929): > 200 µM; CC50 at 48 h ([4]; read-out: CC50 J774.G8): > 200 µM; IC50 ([5]; 48 h): 174 ± 12.3 µM
6 | C#CCN(c1nc(-c2ccccc2)no1)C1CCCCC1 [Ox5, N-Cyclohexyl-3-phenyl-N-(prop-2-yn-1-yl)-1,2,4-oxadiazol-5-amine] |  | > 200 µM | 160 ± 6.5 µM | 84.7 ± 3.6 µM |  | 4.4 | 112 to 114 °C | lower than 5.0 | 
7 | C#CCN(c1nc(-c2ccc([N+](=O)[O-])cc2)no1)C1CCCCC1 [Ox6, N-Cyclohexyl-3-(4-nitrophenyl)-N-(prop-2-yn-1-yl)-1,2,4-oxadiazol-5-amine] |  | > 200 µM | > 200 µM | 92.2 ± 1.9 µM | 2.5 | 3.7 | 108 to 110 °C | lower than 5.0 | 
8 | C#CCN(c1nc(-c2cccc([N+](=O)[O-])c2)no1)C1CCCCC1 [Ox7, N-Cyclohexyl-3-(3-nitrophenyl)-N-(prop-2-yn-1-yl)-1,2,4-oxadiazol-5-amine] |  | > 200 µM | 197 ± 6 µM | 98.2 ± 1.4 µM | 2.0 |  | 94 to 96 °C |  | 
9 | c1ccc(-c2noc(NC3CCCCC3)n2)cc1 [Ox, N-Cyclohexyl-3-(phenyl)-1,2,4-oxadiazol-5-amine] |  |  |  |  |  |  | 125 to 127 °C |  | 
10 | antimoniate of meglumine [glucantime, reference compound] | reduced the number of intracellular amastigotes |  |  |  |  |  |  |  | IC50 [2]: 346 µM
